Measured values reported in US20070274947A1, “Antisense Oligonucleotides Directed to Ribonucleotide Reductase R1 and Uses Thereof in the Treatment of Cancer” (priority 2003, published 2007).
“Also recorded” adds a separate entry of the source.

How the values were obtained:
[1] = Acute intravenous toxicity study in rats (24-hour infusion); type: in vivo, Sprague-Dawley rats; details: rat
Text: The purpose of this study was to assess the adverse effects of SEQ ID NO:1 when administered as a single intravenous dose to Sprague-Dawley rats. […] Parameters assessed included mortality, clinical observations, body weight and food consumption assessment, clinical pathology and urinalysis measurements, and gross examination at necropsy.

H460 (lung) = assay: Colony forming ability, H460; type: cell-based, human; details: 0.2 μM antisense oligonucleotide/lipofectin, 4 hours
Experimental: The effect of SEQ ID NO:1 on the colony forming ability were evaluated in the following human tumor cell lines:
Tumor cells were washed in 5 ml of phosphate buffered saline, pH 7.2, prior to 0.2 μM antisense oligonucleotide/lipofectin treatment for 4 hours. The medium was removed and the cells were gently washed with 5 ml of growth medium. The cells were then cultured in growth medium for seven to ten days. Surviving colonies were visualized by methylene blue staining and colonies of 50 or more cells were scored (Choy et al., 1988 and Huang and Wright, 1994). Results are summarized from 4 to 8 trials for each tumor cell line.

R1 protein = assay: Western blot of R1 protein in MDA-MB-231 cells; type: cell-based, human; details: SEQ ID NO:1 0.025-0.2 μM, controls 0.2 μM
Experimental: MDA-MB-231 human breast adenocarcinoma cells were treated with increasing concentrations (0.025-0.2 μM) of SEQ ID NO:1, 0.2 μM of a scrambled control analogue of SEQ ID NO:1 (SEQ ID NO:1 Scr) or a mismatched control analogue of SEQ ID NO:1 (SEQ ID NO:1 Mis) that contains four base changes. Cells were then washed and fresh media were added. Cells were harvested 8-18 hours later for protein extractions. Aliquots of cell extracts were heated at 100° C. for 5 minutes and then analyzed on sodium dodecyl sulfate-polyacrylamide gels (Choy et al., 1988). Proteins were then transferred to membranes. Membranes were blocked and then incubated with anti-R1 antibody for 1 hour at room temperature. Membranes were washed three times in cold TBS-Tween buffer followed by incubation for 30 minutes to 1 hour at room temperature in the presence of a second antibody (goat anti-rabbit immunoglobulin linked with horseradish peroxidase). Blots were washed and bound antibodies were detected by development of the […] reaction (Fan et al., 1996).

[2] = system: C8161 human melanoma cells; assay: Experimental metastasis of C8161 cells treated ex vivo (lung nodules, CD-1 athymic nude mice); type: in vivo; details: cells treated 4 hr with 0.2 μM plus Lipofectin before tail vein injection; 4 weeks; vs lipofectin alone
Experimental: A. Experimental metastasis of C8161 human melanoma cells treated with SEQ ID NO:1 was estimated as follows. Aliquots of C8161 cell suspension were seeded into 100 mm tissue culture dishes at a density of 2×10^6 and incubated overnight at 37° C. in α-MEM medium supplemented with 10% FBS. Following a wash with 10 ml of PBS, cells were treated for 4 hr with 0.2 μM of SEQ ID NO:1 in the presence of a cationic lipid (Lipofectin reagent, final concentration, 10 μg/ml, Gibco BRL) or with lipofectin alone (CONTROL) as a control. SEQ ID NO:1 was removed by washing the cells once with PBS. Cells were then collected by trypsinization and centrifugation. Approximately 1×10^5 cells suspended in 0.2 ml of PBS were injected into the tail veins of 6-8 week-old CD-1 athymic female nude mice. Estimates of the number of lung tumors were made 4 weeks later by counting metastatic foci formed on the excised lung surface, see FIG. 12A. Bars represent mean number of tumor nodules in lungs obtained from 7-9 animals per experimental group.

[3] = system: C8161 human metastatic melanoma cells; assay: Experimental metastasis of C8161 cells, in vivo treatment (lung nodules, SCID mice); details: 10 mg/kg/48 hr from day 2, 5-7 weeks
Experimental: B. C8161 human metastatic melanoma cells were seeded into 100 mm tissue culture dishes at a density of 2×10^6 and incubated overnight at 37° C. in α-MBM medium supplemented with 10% FBS. The cells were trypsinized, collected by centrifugation and aliquots were removed from the suspension to determine the cell viability using trypan blue exclusion test. Approximately, 1×10^5 cells suspended in 0.1 ml of PBS were injected into the tail veins of 6-8 week old female SCID mice. Treatment with saline or 10 mg/kg/48 hr SEQ ID NO:1 or SEQ ID NO:1-SCR (scrambled control) was initiated after 2 days. Estimates of the number of lung nodules were made 5-7 weeks later, after excised lungs from individual mice were stained with picric acid dye solution (75% picric acid, 20% formaldehyde, 5% glacial acetic acid), see FIG. 12B. The bars represent the mean number of nodules per mouse with standard error.

[4] = system: MDA-MB435-To.1 human Taxol-resistant breast adenocarcinoma cells; assay: Taxol-resistant breast adenocarcinoma MDA-MB435-To.1 growth in SCID mice; type: in vivo
Experimental: MDA-MB435-To.1 human Taxol-resistant breast adenocarcinoma cells (4×10^6 cells in 100 μl of PBS) were injected into the fat pad (inside of right leg) of 6-7 weeks old female SCD mice. After the size of tumor reached an approximate volume of 100 mm^3, 20 days post tumor cell injection, SEQ ID NO:1 was administered by bolus infusion into the tail vein every other day at 10 mg/kg 15 times. Control animals received saline alone for the same period. Antitumor effect of SEQ ID NO:1 was further compared to that of Cisplatin or Taxol alone (FIG. 15A). Cisplatin was administered intravenously once a week for four weeks at a dose of 4 mg/kg. Taxol was administered intravenously once a week for four weeks at a dose of 20 mg/kg. Antitumor activities were estimated by the inhibition of tumor volume, which was measured with caliper (FIG. 15B). Each point represents mean tumor volume calculated from 9-10 animals per experimental group. […] As expected, treatment with Taxol during the same period was ineffective against Taxol-resistant tumor.
MDA-MB435-To.1 human Taxol-resistant breast adenocarcinoma cells (4×10^6 cells in 100 μl of PBS) were injected into the fat pad (inside of right leg) of 6-7 weeks old female CB-17 SCID mice. After the size of tumor reached an approximate volume of 100 mm^3, 17 days post tumor cell injection, SEQ ID NO:1 was administered by bolus infusion into the tail vein every other day at 10 mg/kg. Control animals received saline alone for the same period. Antitumor effect of SEQ ID NO:1 was compared to that of Cisplatin alone and in combination. Cisplatin was administered intravenously once a week for four weeks at a dose of 4 mg/kg. Antitumor activities were estimated by the inhibition of tumor volume, which was measured with caliper (FIG. 15B). Each point represents mean tumor volume calculated from 10 animals per experimental group. At the end of the study the animals were sacrificed and tumors weighed (FIG. 15C).

[5] = Repeat dose 14-day toxicity study in monkeys (Part 1); details: monkey
[6] = Repeat dose 21-day toxicity study in monkeys (Part 2); details: monkey; 21-day infusion, 50 mg/kg/day

5′-CTCTAGCGTCTTAAAGCCGA-3′ (CTCTAGCGTCTTAAAGCCGA; chemistry not given here) [SEQ ID NO:1]
toxicological effects ([1]; 24-hour continuous i.v. infusion, 40 mg/kg/day): toxicological effects were not observed
test article related effects ([1]; 24-hour continuous i.v. infusion, 60, 80 and 90 mg/kg): some test article related effects were found
inhibition in colony forming ability (H460 (lung)): greater than 60%
R1 protein expression (R1 protein): specifically decreases R1 protein expression in a dose-dependent manner; also recorded: decreased R1 protein expression in a dose-dependent manner
number of lung tumor nodules [2]: significantly reduced the formation of lung colonies
number of lung nodules [3]: no visible lung nodules
delay in tumor growth compared with Cisplatin ([4]; first experiment, Cisplatin 4 mg/kg weekly as positive control): superior to the inhibitory effects observed with Cisplatin
tumor weight / tumor growth ([4]; first experiment, start 20 days post injection, SEQ ID NO:1 10 mg/kg 15 times, Cisplatin 4 mg/kg, Taxol 20 mg/kg weekly for four weeks): significant reduction of tumor weight
delay in tumor growth compared with Cisplatin ([4]; second experiment, CB-17 SCID mice): superior to the inhibitory effects observed with Cisplatin
tumor weight / tumor growth ([4]; second experiment, CB-17 SCID mice, start 17 days post injection, SEQ ID NO:1 10 mg/kg every other day, Cisplatin 4 mg/kg weekly): significant reduction of tumor weight
deaths, clinical signs, appetite, ophthalmology, cardiology, hematology, organ weights ([5]; 14-day infusion up to 40 mg/kg/day): no deaths, no treatment-related clinical signs, effects on appetite, ophthalmology effects, cardiology, hematology effects, or changes in organ weights
toxicity ([5]; continuously for 14 days at 10 mg/kg/day (123 mg/m^2/day)): Minimal and reversible toxicity
mortality [6]: one high dose animal was sacrificed on Day 19 for ethical reasons
